From PubChem BioAssay (NCI)
Values joined by “and” are separate entries in the source; they are usually repeats but may differ in a detail not shown here. Identical values can stand only once.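 Cultured in 96-well plates, cells were exposed to test compound for 48 hours across five concentrations. Abbreviation: GI50, concentration required for 50% inhibition of growth. TGI is the concentration that stops growth completely.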

Tests used:
Assay in all cases: NCI anticancer screen, dose series, 48 h
[1] = test system: COLO 205 colon
[2] = test system: SK-OV-3 ovarian
[3] = test system: K-562 leukemia
[4] = test system: SNB-19 CNS
[5] = test system: IGROV1 ovarian
[6] = test system: SK-MEL-5 melanoma
[7] = test system: NCI-H23 lung
[8] = test system: U251 CNS
[9] = test system: SW-620 colon
[10] = test system: HCC-2998 colon

Structure (SMILES)	TGI [1]	TGI [2]	GI50 [3]	TGI [3]	GI50 [4] [µM]	TGI [4] [µM]	TGI [5] [µM]	GI50 [6]	TGI [6]	GI50 [7]	TGI [7]	GI50 [8]	TGI [8]	GI50 [9]	TGI [9]	GI50 [10]	TGI [10]	GI50 [1]	GI50 [2]	GI50 [5] [µM]
CCNC(=O)C#CC(=O)NCC	> 100 µM	> 100 µM	> 10 µM	> 70.2 µM	> 10	> 100	> 100	> 10 µM	> 100 µM	> 10 µM	> 100 µM	> 10 µM	> 100 µM	> 10 µM	> 87.7 µM	> 10 µM	> 100 µM			
O=C1C=C(Br)C(=O)C12CCc1ccccc12 (stereo unspecified)	11.2 µM	42.6 µM		9.26 µM		66.6	39.3		34.6 µM		44.6 µM		41.8 µM		16.2 µM		40.2 µM			
C=C1C(=O)O[C@H]2[C@H]1CC/C(COC(=O)NCc1ccc(Cn3c(=O)sn(CCCCl)c3=O)cc1)=C\CC[C@@]1(C)O[C@@H]21	3.92 µM	32.2 µM	0.726 µM	> 100 µM	4.84	17.4	3.88	3.72 µM	14.1 µM	2.33 µM	5.36 µM	5.05 µM	17.2 µM	1.23 µM	3.31 µM	7.83 µM	21.4 µM	2.04 µM	18.3 µM	1.78
CCCCCCCCCCN(CCCCCCCCCC)CC(=O)c1ccc2cc(Br)c3ccccc3c2c1	3.16 µM	17.6 µM	2.05 µM	4.84 µM	2.04	5.75	3.6	1.74 µM	3.28 µM	1.78 µM	3.4 µM	1.91 µM	3.55 µM	1.87 µM	3.75 µM	1.73 µM	3.16 µM	1.66 µM	4.94 µM	1.84
Cn1ncc2c(N)nc(N3CCCCC3)nc21	51.4 µM	> 100 µM	62 µM	> 100 µM	22.5	> 100	> 100	18.4 µM	33.8 µM	28.4 µM	> 100 µM	30.7 µM	> 100 µM	31 µM	> 100 µM	18.6 µM	58.6 µM	19.7 µM	22.5 µM	33.9
COc1ccc(C(N)=O)cc1N=NN(C)C	> 100 µM	> 100 µM		> 100 µM		> 100	> 100		> 100 µM		> 100 µM		> 100 µM		> 100 µM		> 100 µM			
Cc1c(C(=O)NCCO)[n+](=O)c2cc(Cl)ccc2n1[O-]	> 100 µM	> 100 µM		> 100 µM		> 100	> 100		> 100 µM		> 100 µM		> 100 µM		> 100 µM		> 100 µM			
CC(=O)OCCOCNC(=S)N/N=C(\C)c1cnc2ccccc2n1	36.9 µM	> 100 µM		> 100 µM		> 100	> 100		> 100 µM		> 100 µM		> 100 µM		> 100 µM		> 100 µM			
CCOC(=O)C(=Cc1ccccc1[N+](=O)[O-])C(=O)OCC	3.85 µM	12.7 µM	3.64 µM	> 100 µM	4.27	16.4	15.4	1.33 µM	2.66 µM	3.35 µM	13.9 µM	3.65 µM	13.1 µM	2.12 µM	4.85 µM	3.48 µM	10.7 µM	2.14 µM	3.51 µM	3.77
CC1=C[C@H]2c3c(c(O)c(O)c4oc5ccccc5c(=O)c34)[C@H](c3cc(O)c(O)c4oc5ccccc5c(=O)c34)[C@H]2C(C)(C)C1	9.73 µM	14.2 µM	0.22 µM	> 100 µM	1.17	14.1	8.09	1.17 µM	2.51 µM	0.518 µM	3.22 µM	0.728 µM	14 µM	0.802 µM	10.7 µM	1.87 µM	6.03 µM	2.8 µM	2.5 µM	1.05
CN(C)C(N)=NC#N	> 100 µM	> 100 µM		> 100 µM		> 100	> 100		> 100 µM		> 100 µM		> 100 µM		38.2 µM		> 100 µM			
CCOc1cc2c(NCCCN(CCO)CCO)ncnc2c(OCC)c1OCC	> 100 µM	> 100 µM		> 100 µM		> 100	> 100		> 100 µM		> 100 µM		> 100 µM		> 100 µM		> 100 µM			
COc1ccc2c(Nc3ccc(NS(C)(=O)=O)cc3)c3ccccc3nc2c1	1.58 µM	5.26 µM	0.674 µM	> 100 µM	0.445	11.4	16.7	0.526 µM	1.89 µM	0.475 µM	2.49 µM	0.475 µM	9.02 µM	0.276 µM	3.29 µM	0.732 µM	2.3 µM	0.384 µM	0.364 µM	0.418
COc1ccc(/C=C/c2nc(NCCCN(C)C)c3ccccc3n2)cc1	3.3 µM	6.3 µM	1.99 µM	4.4 µM	4.31	9.67	10.6	1.71 µM	3.27 µM	5.43 µM	11.5 µM	1.79 µM	3.37 µM	1.67 µM	3.49 µM	13.8 µM	27.6 µM	1.8 µM	2.51 µM	3.39
O=c1[nH]c(=O)n(C2OC(CO)C(O)C2O)c2c1CCCC2 (stereo unspecified)	> 100 µM	> 100 µM		> 100 µM		> 100	> 100		> 100 µM		> 100 µM		> 100 µM		> 100 µM		> 100 µM			
CCC(=O)C(C)C1=Nc2nnc(CCCCCCCc3nnc4n3C(=O)C(C(C)C(=O)CC)=N4)n2C1=O (stereo unspecified)	> 100 µM	> 100 µM		> 100 µM		> 100	> 100		> 100 µM		> 100 µM		> 100 µM		> 100 µM		> 100 µM			
O=[N+]([O-])c1ccc(N/N=C/c2c(O)ccc3ccccc23)nc1	> 100 µM	> 100 µM	> 100 µM	> 100 µM	> 100	> 100	> 100	20.1 µM	> 100 µM	> 100 µM	> 100 µM	5.01 µM	> 100 µM	3.61 µM	> 100 µM	28.8 µM	> 100 µM	30.5 µM	> 100 µM	7.48
CCOC(=O)C(Cc1c[nH]c2ccc(N(CCCl)CCCl)cc12)(NC(C)=O)C(=O)OCC	30.4 µM and 44.2 µM	99.4 µM and 131 µM	22.7 µM and 12.2 µM	57.5 µM and 47.2 µM	19.6	312	102	7.34 µM and 24.5 µM	25.5 µM and 137 µM	5.99 µM and 9.89 µM	31.2 µM and 64.8 µM	10.6 µM and 7.88 µM	35.4 µM and 35.3 µM	8.78 µM and 13.2 µM	93.6 µM and 46.8 µM	12.1 µM and 13.4 µM	30.2 µM and 36.4 µM	12.2 µM and 15.3 µM	22.6 µM and 17.5 µM	19.4
CC(C)c1ccc(C(=O)Nc2sc3c(c2C#N)CCC(=O)C3)cc1	2.87 µM	8.15 µM	0.203 µM		0.409	> 100	13.1	0.979 µM	2.52 µM	0.32 µM	9.57 µM	0.338 µM	> 100 µM	0.266 µM	1.67 µM	1.94 µM	> 37.4 µM	0.49 µM	2.39 µM	0.458
C=C1C(=O)OC2CC1C(O)C/C(C)=C/CC/C(C)=C/C(O)CC2C (stereo unspecified)	2.94 µM	26.5 µM		> 30.5 µM		18.9	9.3		15.4 µM		7.8 µM		16.8 µM		5.62 µM		4.21 µM			
CC(=O)OC1CC2C(C)(C)C(=O)C=C[C@]2(C)C2CCC3(C)C(c4ccoc4)C(=O)[C@H]4O[C@]43[C@]12C (stereo partly specified)	> 100 µM	> 100 µM		59.5 µM		67.5	78.9		32.9 µM		50.4 µM		32.9 µM		59.2 µM		32.2 µM			
